From patent US20250177399A1, “COMBINATION THERAPIES” (MIRATI THERAPEUTICS, INC., priority 2021, published 2025)
Where two headings read alike, the source gives them in different places.

Experiments:
H2122 tumors [1] = conditions: for Average Tumor Volumes of H2122 Tumor Bearing Mice: Compound 478 100 mg/kg, trametinib 1 mg/kg
Experimental: Immunocompromised nude/nude mice were inoculated in the right hind flank with cells or patient derived tumor samples harboring a KRas G12C mutation. When tumor volumes reach between 200-400 mm^3 in size, the mice were divided into four groups of 5-12 mice each. The first group was administered vehicle only. […] The fourth group was orally administered the single agent dose of the KRas G12C inhibitor in combination with the single agent dose of the MEK inhibitor at the matched schedule. […] Tumor volumes were measured using a caliper every two-three days and tumor volumes are calculated by the formula: […].
For example, twenty nude/nude mice were inoculated in the right hind limb with 5×10^6 H2122 cells.

SW1573 tumors = assay: SW1573 tumor model, Compound 478 and RO5126766 alone and in combination; format: in vivo, nude/nude mice; conditions: Compound 478 100 mg/kg p.o daily, RO5126766 0.3 mg/kg p.o Q2D; for tumor growth inhibition: SW1573 tumors, at Day 20
Experimental: (§1) Immunocompromised nude/nude mice were inoculated in the right hind flank with cells or patient derived tumor samples harboring a KRas G12C mutation. When tumor volumes reach between 200-400 mm^3 in size, the mice were divided into four groups of 5-12 mice each. The first group was administered vehicle only. […] The fourth group was orally administered the single agent dose of the KRas G12C inhibitor in combination with the single agent dose of the MEK inhibitor at the matched schedule. […] Tumor volumes were measured using a caliper every two-three days and tumor volumes are calculated by the formula: 0.5×(Length×Width)2.

LU99 tumors = assay: LU99 tumor model, Compound 478 and RO5126766 alone and in combination; format: in vivo, nude/nude mice; conditions: for Average Tumor Volumes of LU99 Tumor Bearing Mice: p.o. daily, Compound 478 30 mg/kg
Experimental: as §1

H2122 tumors [2] = assay: H2122 tumor model, Compound 478 and RO5126766 alone and in combination; format: in vivo, nude/nude mice; conditions: Compound 478 100 mg/kg p.o daily, RO5126766 0.3 mg/kg p.o Q2D; for tumor growth inhibition: H2122 tumors, at Day 21
Experimental: as §1

[3] = Study Day 1, RO5126766 0.3 mg/kg
[4] = Study Day 4, RO5126766 0.3 mg/kg
[5] = Study Day 9, RO5126766 0.3 mg/kg
[6] = Study Day 12, RO5126766 0.3 mg/kg
[7] = Study Day 15, RO5126766 0.3 mg/kg
[8] = Study Day 18, RO5126766 0.3 mg/kg

| Compound | Average Tumor Volumes of H2122 Tumor Bearing Mice (H2122 tumors [1]; Study Day 1, p.o. daily) | Average Tumor Volumes of H2122 Tumor Bearing Mice (H2122 tumors [1]; Study Day 7, p.o. daily) | Average Tumor Volumes of H2122 Tumor Bearing Mice (H2122 tumors [1]; Study Day 21, p.o. daily) | Average Tumor Volumes of H2122 Tumor Bearing Mice (H2122 tumors [1]; Study Day 24, p.o. daily) | Average Tumor Volumes of H2122 Tumor Bearing Mice (H2122 tumors [1]; Study Day 32, p.o. daily) | tumor growth inhibition (SW1573 tumors) | Average Tumor Volumes of SW1573 Tumor Bearing Mice (SW1573 tumors; Study Day 0) | Average Tumor Volumes of SW1573 Tumor Bearing Mice (SW1573 tumors; Study Day 3) | Average Tumor Volumes of SW1573 Tumor Bearing Mice (SW1573 tumors; Study Day 7) | Average Tumor Volumes of SW1573 Tumor Bearing Mice (SW1573 tumors; Study Day 10) | Average Tumor Volumes of SW1573 Tumor Bearing Mice (SW1573 tumors; Study Day 13) | Average Tumor Volumes of SW1573 Tumor Bearing Mice (SW1573 tumors; Study Day 17) | Average Tumor Volumes of SW1573 Tumor Bearing Mice (SW1573 tumors; Study Day 20) | Average Tumor Volumes of LU99 Tumor Bearing Mice (LU99 tumors; [3]) | Average Tumor Volumes of LU99 Tumor Bearing Mice (LU99 tumors; [4]) | Average Tumor Volumes of LU99 Tumor Bearing Mice (LU99 tumors; [5]) | Average Tumor Volumes of LU99 Tumor Bearing Mice (LU99 tumors; [6]) | Average Tumor Volumes of LU99 Tumor Bearing Mice (LU99 tumors; [7]) | Average Tumor Volumes of LU99 Tumor Bearing Mice (LU99 tumors; [8]) | tumor growth inhibition (H2122 tumors [2]) | other results |
| --- | --- | --- | --- | --- | --- | --- | --- | --- | --- | --- | --- | --- | --- | --- | --- | --- | --- | --- | --- | --- | --- |
| C=C(F)C(=O)N1CCN(c2nc(OC[C@@H]3CCCN3C)nc3c2CCN(c2cccc4cccc(Cl)c24)C3)C[C@@H]1CC#N [Compound 478] | 315 mm^3 | 233 mm^3 | 270 mm^3 | 254 mm^3 | 287 mm^3 | 52% | 145.1243 mm^3 | 201.0648 mm^3 | 253.1608 mm^3 | 365.7683 mm^3 | 394.367 mm^3 | 486.729 mm^3 | 534.3942 mm^3 | 228.8452 mm^3 | 282.5161 mm^3 | 219.8962 mm^3 | 252.5981 mm^3 | 416.0955 mm^3 | 495.1032 mm^3 | 91% | tumor growth regression (H2122 tumors [1]; H2122 tumors, day not given, Compound 478 100 mg/kg p.o. daily): 12%; Average Tumor Volumes of H2122 Tumor Bearing Mice (H2122 tumors [1]; Study Day 35, p.o. daily): 305 mm^3; Average Tumor Volumes of H2122 Tumor Bearing Mice (H2122 tumors [1]; Study Day 38, p.o. daily): 324 mm^3; Average Tumor Volumes of H2122 Tumor Bearing Mice (H2122 tumors [1]; Study Day 42, p.o. daily): 353 mm^3; Average Tumor Volumes of H2122 Tumor Bearing Mice (H2122 tumors [1]; Study Day 45, p.o. daily): 378 mm^3; Average Tumor Volumes of H2122 Tumor Bearing Mice (H2122 tumors [1]; Study Day 49, p.o. daily): 337 mm^3; Average Tumor Volumes of H2122 Tumor Bearing Mice (H2122 tumors [1]; Study Day 56, p.o. daily, dosing stopped on day 56): 371 mm^3; Average Tumor Volumes of H2122 Tumor Bearing Mice (H2122 tumors [1]; Study Day 63, after dosing stopped on day 56): 542 mm^3; Average Tumor Volumes of H2122 Tumor Bearing Mice (H2122 tumors [1]; Study Day 70, after dosing stopped on day 56): 802 mm^3; Average Tumor Volumes of H2122 Tumor Bearing Mice (H2122 tumors [1]; Study Day 77, after dosing stopped on day 56): 1073 mm^3; Average Tumor Volumes of H2122 Tumor Bearing Mice (H2122 tumors [1]; Study Day 85, after dosing stopped on day 56): 1294 mm^3; tumor growth inhibition (LU99 tumors; LU99 tumors, Day 18, Compound 478 30 mg/kg p.o. daily): 81%; Average Tumor Volumes of H2122 Tumor Bearing Mice (H2122 tumors [2]; Study Day 0): 213.447 mm^3; Average Tumor Volumes of H2122 Tumor Bearing Mice (H2122 tumors [2]; Study Day 2): 229.5648 mm^3; Average Tumor Volumes of H2122 Tumor Bearing Mice (H2122 tumors [2]; Study Day 7): 285.0973 mm^3; Average Tumor Volumes of H2122 Tumor Bearing Mice (H2122 tumors [2]; Study Day 9): 326.5344 mm^3; Average Tumor Volumes of H2122 Tumor Bearing Mice (H2122 tumors [2]; Study Day 14): 319.1401 mm^3; Average Tumor Volumes of H2122 Tumor Bearing Mice (H2122 tumors [2]; Study Day 17): 378.2042 mm^3 |
| CNS(=O)(=O)Nc1nccc(Cc2c(C)c3ccc(Oc4ncccn4)cc3oc2=O)c1F [RO5126766, 3-[[3-fluoro-2-(methylsulfamoylamino)pyridin-4-yl]methyl]-4-methyl-7-pyrimidin-2-yloxychromen-2-one, reference compound] |  |  |  |  |  | 51% | 249.5609 mm^3 | 280.2067 mm^3 | 299.7596 mm^3 | 395.0633 mm^3 | 458.1809 mm^3 | 469.133 mm^3 | 480.1852 mm^3 | 232.1134 mm^3 | 247.33 mm^3 | 158.14 mm^3 | 126.8378 mm^3 | 181.1358 mm^3 | 200.6461 mm^3 | 59% | tumor regression (LU99 tumors; LU99 tumors, at Day 18, RO5126766 0.3 mg/kg, Compound 478 30 mg/kg p.o. daily): 12%; Average Tumor Volumes of H2122 Tumor Bearing Mice (H2122 tumors [2]; Study Day 0): 212.4101 mm^3; Average Tumor Volumes of H2122 Tumor Bearing Mice (H2122 tumors [2]; Study Day 2): 327.3898 mm^3; Average Tumor Volumes of H2122 Tumor Bearing Mice (H2122 tumors [2]; Study Day 7): 463.4062 mm^3; Average Tumor Volumes of H2122 Tumor Bearing Mice (H2122 tumors [2]; Study Day 9): 474.4923 mm^3; Average Tumor Volumes of H2122 Tumor Bearing Mice (H2122 tumors [2]; Study Day 14): 504.5922 mm^3; Average Tumor Volumes of H2122 Tumor Bearing Mice (H2122 tumors [2]; Study Day 17): 576.573 mm^3; Average Tumor Volumes of H2122 Tumor Bearing Mice (H2122 tumors [2]; Study Day 21): 772.6155 mm^3 |
| CC(=O)Nc1cccc(-n2c(=O)n(C3CC3)c(=O)c3c(Nc4ccc(I)cc4F)n(C)c(=O)c(C)c32)c1 [Trametinib, N-(3-(3-cyclopropyl-5-((2-fluoro-4-iodophenyl)amino)-6,8-dimethyl-2,4,7-trioxo-3,4,6,7-tetrahydropyrido[4,3-d]pyrimidin-1 (2H)-yl)phenyl) acetamide, reference compound] | 301 mm^3 | 447 mm^3 | 667 mm^3 | 778 mm^3 | 816 mm^3 |  |  |  |  |  |  |  |  |  |  |  |  |  |  |  | tumor growth inhibition (H2122 tumors [1]; H2122 tumors, at Day 32, trametinib 1 mg/kg p.o. daily): 60%; Average Tumor Volumes of H2122 Tumor Bearing Mice (H2122 tumors [1]; Study Day 3, p.o. daily): 385 mm^3; Average Tumor Volumes of H2122 Tumor Bearing Mice (H2122 tumors [1]; Study Day 10, p.o. daily): 462 mm^3; Average Tumor Volumes of H2122 Tumor Bearing Mice (H2122 tumors [1]; Study Day 15, p.o. daily): 534 mm^3; Average Tumor Volumes of H2122 Tumor Bearing Mice (H2122 tumors [1]; Study Day 17, p.o. daily): 582 mm^3; Average Tumor Volumes of H2122 Tumor Bearing Mice (H2122 tumors [1]; Study Day 28, p.o. daily): 673 mm^3 |
